This note sets out measurements from the OligoGym collection.

The data set deals with MRFAP1. The data set is described as follows: reporter assay of Huesken 2005. The conditions noted are these: siRNA.

Oligonucleotides are written 5' to 3', each unit as a sugar letter and its base; * is a phosphorothioate linkage, no mark a phosphodiester; rarer units and linkages stand in square brackets, end groups in braces. Plain capitals give the bases only. d = 2'-deoxy (DNA); r = 2'-OH (RNA)
Also: test concentration or dose not given here.

Regarding “sense rArArGrArUrGrGrCrCrGrArGrArUrGrCrUrGrGdTdT / antisense rCrCrArGrCrArUrCrUrCrGrGrCrCrArUrCrUrUdCdG”, the normalised inhibition (eCFP-eYFP dual reporter) was determined as 33.1%.
The value for “sense rUrCrUrUrUrUrCrCrCrCrUrCrUrGrUrCrUrUrCdTdT / antisense rGrArArGrArCrArGrArGrGrGrGrArArArArGrAdAdA” was 35.3%; that for “sense rGrArArCrArGrCrGrGrCrGrGrArArGrUrUrUrUdTdT / antisense rArArArArCrUrUrCrCrGrCrCrGrCrUrGrUrUrCdCdA” was 84.3%; that for “sense rCrCrGrArGrGrArGrGrUrGrGrArGrGrUrGrCrUdTdT / antisense rArGrCrArCrCrUrCrCrArCrCrUrCrCrUrCrGrGdGdC” was 58.9%.
The value for “sense rCrUrGrUrGrGrGrArGrArUrGrGrArCrArArUrAdTdT / antisense rUrArUrUrGrUrCrCrArUrCrUrCrCrCrArCrArGdCdT” was 82.9%; that for “sense rArArGrCrArGrCrGrGrArGrArUrGrCrGrGrCrCdTdT / antisense rGrGrCrCrGrCrArUrCrUrCrCrGrCrUrGrCrUrUdTdG” was 42.8%.
To “sense rGrGrGrCrGrGrCrGrCrCrGrArGrCrCrCrCrGrCdTdT / antisense rGrCrGrGrGrGrCrUrCrGrGrCrGrCrCrGrCrCrCdGdC” belongs 74.9%; to “sense rGrGrUrGrCrArGrCrUrCrGrUrGrCrGrGrCrGrGdTdT / antisense rCrCrGrCrCrGrCrArCrGrArGrCrUrGrCrArCrCdAdG”, 88.4%.
As to “sense rCrUrUrGrUrUrCrGrUrCrUrGrUrArCrArArGrUdTdT / antisense rArCrUrUrGrUrArCrArGrArCrGrArArCrArArGdAdC”, the normalised inhibition (eCFP-eYFP dual reporter) amounted to 54.3%.
To “sense rUrCrArCrCrGrCrCrUrCrUrGrArArArGrUrUrCdTdT / antisense rGrArArCrUrUrUrCrArGrArGrGrCrGrGrUrGrAdGdC” belongs 45.5%.
The value for “sense rCrUrCrUrGrArGrGrArGrArGrCrGrCrUrCrUrCdTdT / antisense rGrArGrArGrCrGrCrUrCrUrCrCrUrCrArGrArGdGdC” was 48.8%; that for “sense rGrArGrArGrCrCrUrUrUrGrUrUrUrUrCrCrUrUdTdT / antisense rArArGrGrArArArArCrArArArGrGrCrUrCrUrCdTdG” was 106%.
As to “sense rCrArUrArUrGrUrArGrUrCrArArGrCrUrArUrAdTdT / antisense rUrArUrArGrCrUrUrGrArCrUrArCrArUrArUrGdAdA”, the normalised inhibition (eCFP-eYFP dual reporter) is 101%.
As for “sense rGrCrArArArGrCrArGrCrGrGrArGrArUrGrCrGdTdT / antisense rCrGrCrArUrCrUrCrCrGrCrUrGrCrUrUrUrGrCdTdT”, the normalised inhibition (eCFP-eYFP dual reporter) came out at 74.8%.
To “sense rArCrUrGrArGrArCrUrUrGrGrArGrUrUrGrGrAdTdT / antisense rUrCrCrArArCrUrCrCrArArGrUrCrUrCrArGrUdGdT” belongs 88.7%.
For the substance “sense rArCrArArGrCrArArArGrCrArGrCrGrGrArGrAdTdT / antisense rUrCrUrCrCrGrCrUrGrCrUrUrUrGrCrUrUrGrUdCdT”, the normalised inhibition (eCFP-eYFP dual reporter) worked out at 62.6%.
The value for “sense rArCrGrCrArGrUrGrGrArGrCrUrGrGrCrGrGrAdTdT / antisense rUrCrCrGrCrCrArGrCrUrCrCrArCrUrGrCrGrUdCdC” was 76.4%; that for “sense rUrCrGrUrGrCrArGrArCrArArGrCrArArArGrCdTdT / antisense rGrCrUrUrUrGrCrUrUrGrUrCrUrGrCrArCrGrAdCdA” was 67.6%.
With “sense rCrArCrUrGrArGrArCrUrUrGrGrArGrUrUrGrGdTdT / antisense rCrCrArArCrUrCrCrArArGrUrCrUrCrArGrUrGdTdC”, the normalised inhibition (eCFP-eYFP dual reporter) stood at 77.6%.
To “sense rArGrGrUrCrArArArArCrCrCrUrUrArCrCrArUdTdT / antisense rArUrGrGrUrArArGrGrGrUrUrUrUrGrArCrCrUdCdA” belongs 85.7%.
For “sense rArArArCrUrUrCrArArGrGrArArGrArGrGrCrGdTdT / antisense rCrGrCrCrUrCrUrUrCrCrUrUrGrArArGrUrUrUdTdG”, the normalised inhibition (eCFP-eYFP dual reporter) is 66.3%.
For “sense rArGrUrUrUrCrUrGrCrUrGrCrCrCrGrUrCrArUdTdT / antisense rArUrGrArCrGrGrGrCrArGrCrArGrArArArCrUdGdC”, the normalised inhibition (eCFP-eYFP dual reporter) is 66.2%.
To “sense rCrArArGrArCrGrCrArGrGrUrArGrArGrGrCrCdTdT / antisense rGrGrCrCrUrCrUrArCrCrUrGrCrGrUrCrUrUrGdAdT” belongs 73.2%; to “sense rGrGrArArArArUrGrCrGrCrUrCrArCrArUrArCdTdT / antisense rGrUrArUrGrUrGrArGrCrGrCrArUrUrUrUrCrCdAdA”, 86.7%.
Turning to “sense rUrUrUrGrGrGrUrCrCrCrUrGrUrGrArCrArCrUdTdT / antisense rArGrUrGrUrCrArCrArGrGrGrArCrCrCrArArAdGdT”, the normalised inhibition (eCFP-eYFP dual reporter) turned out to be 50.8%.
To “sense rCrUrGrArGrArCrUrUrGrGrArGrUrUrGrGrArGdTdT / antisense rCrUrCrCrArArCrUrCrCrArArGrUrCrUrCrArGdTdG” belongs 81.5%; to “sense rUrGrArUrGrArCrCrUrGrGrGrArGrArArGrGrGdTdT / antisense rCrCrCrUrUrCrUrCrCrCrArGrGrUrCrArUrCrAdGdT”, 33.2%.
Consider “sense rGrArUrCrArArGrArCrGrCrArGrGrUrArGrArGdTdT / antisense rCrUrCrUrArCrCrUrGrCrGrUrCrUrUrGrArUrCdTdG”, for which the normalised inhibition (eCFP-eYFP dual reporter) was 72%.
The value for “sense rGrGrUrArUrCrCrCrCrArUrArUrArUrUrUrGrAdTdT / antisense rUrCrArArArUrArUrArUrGrGrGrGrArUrArCrCdAdA” was 76.3%; that for “sense rGrUrUrCrCrUrGrArArUrUrUrGrArGrGrUrGrCdTdT / antisense rGrCrArCrCrUrCrArArArUrUrCrArGrGrArArCdAdC” was 23.1%; that for “sense rArCrGrArCrCrUrCrGrArUrArUrGrArGrUrUrUdTdT / antisense rArArArCrUrCrArUrArUrCrGrArGrGrUrCrGrUdCdA” was 70%.
The value for “sense rCrArCrCrCrUrGrGrArGrArArGrCrUrGrArArAdTdT / antisense rUrUrUrCrArGrCrUrUrCrUrCrCrArGrGrGrUrGdTdC” was 66.7%; that for “sense rArCrUrUrCrGrArGrCrArGrUrUrUrCrUrGrCrUdTdT / antisense rArGrCrArGrArArArCrUrGrCrUrCrGrArArGrUdCdC” was 51.4%; that for “sense rUrGrGrArGrGrUrGrCrUrGrGrArGrCrCrGrGrAdTdT / antisense rUrCrCrGrGrCrUrCrCrArGrCrArCrCrUrCrCrAdCdC” was 69.1%.
The value for “sense rArArArGrCrArGrCrGrGrArGrArUrGrCrGrGrCdTdT / antisense rGrCrCrGrCrArUrCrUrCrCrGrCrUrGrCrUrUrUdGdC” was 35.6%.
